In patent US12459951B2, “Compounds that interact with RAS superfamily proteins for treatment of cancers, inflammatory diseases, rasopathies, and fibrotic disease” (SHY Therapeutics, LLC, priority 2022, dated 2025):

Columns and labels:
[1] = system: Erk1/2 phosphorylation; assay: Erk1/2 Phosphorylation Assay (western blot), Panc-1; format: cell-based, human; conditions: at 10 μM, * = activation
In short: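 Phospho-Erk1/2 (Thr202/Tyr204) was detected by western blot in lysates of Panc-1 cells (KRas G12D). These had 6 h, 37° C exposure to 10 μM compound or a dilution series for IC50, in 0.3% DMSO. Cells were either starved overnight in 0.5% FBS with a 15-min 1.5 ng/ml EGF pulse, or kept unstimulated in 10% FBS.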

[2] = system: Akt phosphorylation; assay: Akt Phosphorylation Assay (western blot), Panc-1; format: cell-based, human; conditions: at 10 μM, * = activation
In short: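 Phospho-Akt (Ser473) was measured by western blot in lysates of KRas G12D Panc-1 cells exposed to test compound for 6 h at 37 °C, either at 10 μM final with 0.3% DMSO or as serial dilutions for IC50. One format used overnight 0.5% FBS starvation followed by a 15 min pulse of 1.5 ng/ml EGF. The other used cells in 10% FBS with no stimulation.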

[3] = system: TNF-alpha; assay: TNF-alpha Quantification Assay (ELISA), LPS-stimulated RAW 264.7; format: cell-based; conditions: Mus musculus, RAW264.7; at 10 μM; read-out: TNFα: % inh.

CO[C@H]1CC[C@H](Nc2nc(-c3nccn3C)nn3cc(-c4ccncc4)c(-c4ccccc4)c23)C1 (racemic) [Compound 201, rac N-((1S,3S)-3-Methoxycyclopentyl)-2-(1-methyl-1H-imidazol-2-yl)-5-phenyl-6-(pyridin-4-yl)pyrrolo[2,1-f][1,2,4]triazin-4-amine]
% inh of Erk1/2 phosphorylation in Panc-1 [1]: D* (85-100% activation) | % inh of Akt phosphorylation in Panc-1 [2]: B (26-49% inhibition) | inhibition at 10 µM [3]: 50 to 74%

COCCNC(=O)c1c(-c2ccn(C)n2)cn2nc(-c3nccn3C)nc(N[C@H]3CC[C@H](OC)C3)c12 (racemic) [Compound 183, rac 4-(((1S,3S)-3-Methoxycyclo-pentyl)amino)-N-(2-methoxyethyl)-2-(1-methyl-1H-imidazol-2-yl)-6-(1-methyl-1H-pyrazol-3-yl)pyrrolo[2,1-f][1,2,4]triazine-5-carboxamide]
% inh of Erk1/2 phosphorylation in Panc-1 [1]: D* (85-100% activation) | % inh of Akt phosphorylation in Panc-1 [2]: A (1-25% inhibition) | inhibition at 10 µM [3]: 25 to 49%

COc1cccc(-c2cn3nc(-c4nccn4C)nc(N[C@H]4C[C@H](OC)C4)c3c2-c2ccccc2)c1OC [Compound 219, 6-(2,3-Dimethoxyphenyl)-N-((1r,3r)-3-methoxycyclobutyl)-2-(1-methyl-1H-imidazol-2-yl)-5-phenylpyrrolo[2,1-f][1,2,4]triazin-4-amine]
% inh of Erk1/2 phosphorylation in Panc-1 [1]: D (85-100% inhibition) | % inh of Akt phosphorylation in Panc-1 [2]: D (85-100% inhibition) | inhibition at 10 µM [3]: 75 to 100%

Cc1ccc(Nc2nc(-c3nccn3C)nn3cc(-c4ccn(C)n4)c(C)c23)nc1 [Compound 226, 5-Methyl-2-(1-methyl-1H-imidazol-2-yl)-6-(1-methyl-1H-pyrazol-3-yl)-N-(5-methylpyridin-2-yl)pyrrolo[2,1-f][1,2,4]triazin-4-amine]
% inh of Erk1/2 phosphorylation in Panc-1 [1]: A* (1-25% activation) | % inh of Akt phosphorylation in Panc-1 [2]: D* (85-100% activation) | inhibition at 10 µM [3]: 25 to 49%

Cn1ccnc1-c1nc(NS(C)(=O)=O)c2c(-c3ccccc3)c(-c3ccccc3)cn2n1 [Compound 212, N-(2-(1-Methyl-1H-imidazol-2-yl)-5,6-diphenylpyrrolo[2,1-f][1,2,4]triazin-4-yl) methanesulfonamide]
% inh of Erk1/2 phosphorylation in Panc-1 [1]: B* (26-49% activation) | % inh of Akt phosphorylation in Panc-1 [2]: A* (1-25% activation) | inhibition at 10 µM [3]: 0%

CO[C@H]1C[C@H](Nc2nc(-c3nccn3C)nn3cc(-c4cnccc4C)c(-c4ccccc4)c23)C1 [Compound 218, N-((1r,3r)-3-Methoxycyclobutyl)-2-(1-methyl-1H-imidazol-2-yl)-6-(4-methylpyridin-3-yl)-5-phenylpyrrolo[2,1-f][1,2,4]triazin-4-amine]
% inh of Erk1/2 phosphorylation in Panc-1 [1]: D* (85-100% activation) | % inh of Akt phosphorylation in Panc-1 [2]: D* (85-100% activation) | inhibition at 10 µM [3]: 1 to 24%

COc1cccc(Nc2nc(-c3ccccn3)nn3cc(-c4ccn(C(C)C)n4)c(C)c23)n1 [Compound 14, 6-(1-Isopropyl-1H-pyrazol-3-yl)-N-(6-methoxypyridin-2-yl)-5-methyl-2-(pyridin-2-yl)pyrrolo[2,1-f][1,2,4]triazin-4-amine]
% inh of Erk1/2 phosphorylation in Panc-1 [1]: 0 (0% inhibition) | % inh of Akt phosphorylation in Panc-1 [2]: 0 (0% inhibition) | inhibition at 10 µM [3]: 0%

Cc1c(-c2ccn(C)n2)cn2nc(-c3nccn3C)nc(Nc3ccc(N(C)C)cn3)c12 [Compound 227, N5,N5-Dimethyl-N2-(5-methyl-2-(1-methyl-1H-imidazol-2-yl)-6-(1-methyl-1H-pyrazol-3-yl)pyrrolo[2,1-f][1,2,4]triazin-4-yl)pyridine-2,5-diamine]
% inh of Erk1/2 phosphorylation in Panc-1 [1]: C* (46-84% activation) | % inh of Akt phosphorylation in Panc-1 [2]: D* (85-100% activation) | inhibition at 10 µM [3]: 50 to 74%

CO[C@H]1CC[C@H](Nc2nc(-c3nccn3C)nn3cc(-c4ccn(C)n4)c(C(=O)NC4CC4)c23)C1 (racemic) [Compound 182, rac N-Cyclopropyl-4-(((1S,3S)-3-methoxycyclo-pentyl)amino)-2-(1-methyl-1H-imidazol-2-yl)-6-(1-methyl-1H-pyrazol-3-yl)pyrrolo[2,1-f][1,2,4]triazine-5-carboxamide]
% inh of Erk1/2 phosphorylation in Panc-1 [1]: A* (1-25% activation) | % inh of Akt phosphorylation in Panc-1 [2]: B* (26-49% activation) | inhibition at 10 µM [3]: 1 to 24%

Cn1ccnc1-c1nc(O)c2c(-c3ccccc3)c(-c3cccnc3)cn2n1 [Compound 189, 2-(1-Methyl-1H-imidazol-2-yl)-5-phenyl-6-(pyridin-3-yl)pyrrolo[2,1-f][1,2,4]triazin-4-ol]
% inh of Erk1/2 phosphorylation in Panc-1 [1]: A* (1-25% activation) | % inh of Akt phosphorylation in Panc-1 [2]: B (26-49% inhibition) | inhibition at 10 µM [3]: 1 to 24%

Cc1c(-c2ccn(C)n2)cn2nc(-c3nccn3C)nc(O)c12 [Compound 172, 5-Methyl-2-(1-methyl-1H-imidazol-2-yl)-6-(1-methyl-1H-pyrazol-3-yl)pyrrolo[2,1-f][1,2,4]triazin-4-ol]
% inh of Erk1/2 phosphorylation in Panc-1 [1]: 0 (0% inhibition) | % inh of Akt phosphorylation in Panc-1 [2]: B* (26-49% activation) | inhibition at 10 µM [3]: 0%

Cc1c(-c2ccn(C)n2)cn2nc(-c3nccn3C)nc(Nc3ccc(N4CCCC4)cn3)c12 [Compound 228, 5-Methyl-2-(1-methyl-1H-imidazol-2-yl)-6-(1-methyl-1H-pyrazol-3-yl)-N-(5-(pyrrolidin-1-yl)pyridin-2-yl)pyrrolo[2,1-f][1,2,4]triazin-4-amine]
% inh of Erk1/2 phosphorylation in Panc-1 [1]: A* (1-25% activation) | % inh of Akt phosphorylation in Panc-1 [2]: D* (85-100% activation) | inhibition at 10 µM [3]: 1 to 24%

COc1cc(Nc2nc(-c3nccn3C)nn3cc(-c4ccn(C)n4)c(C)c23)ncc1C1CC1 [Compound 238, N-(5-Cyclopropyl-4-methoxypyridin-2-yl)-5-methyl-2-(1-methyl-1H-imidazol-2-yl)-6-(1-methyl-1H-pyrazol-3-yl)pyrrolo[2,1-f][1,2,4]triazin-4-amine]
% inh of Erk1/2 phosphorylation in Panc-1 [1]: A (1-25% inhibition) | % inh of Akt phosphorylation in Panc-1 [2]: D* (85-100% activation) | inhibition at 10 µM [3]: 50 to 74%

Cc1c(-c2ccn(C)n2)cn2nc(-c3nccn3C)nc(Nc3cc(OCCNC(=O)CCCC[C@H]4SC[C@H]5NC(=O)N[C@H]54)ccn3)c12 [Compound 186, N-(2-((2-((5-Methyl-2-(1-methyl-1H-imidazol-2-yl)-6-(1-methyl-1H-pyrazol-3-yl)pyrrolo[2,1-f][1,2,4]triazin-4-yl)amino)pyridin-4-yl)oxy)ethyl)-5-((3aR,4R,6aS)-2-oxohexahydro-1H-thieno[3,4-d]imidazol-4-yl)pentanamide]
% inh of Erk1/2 phosphorylation in Panc-1 [1]: A* (1-25% activation) | % inh of Akt phosphorylation in Panc-1 [2]: A* (1-25% activation) | inhibition at 10 µM [3]: 1 to 24%

Cc1c(-c2ccn(C)n2)cn2nc(-c3nccn3C)nc(Nc3cc(N4CCOCC4)ccn3)c12 [Compound 222, 5-Methyl-2-(1-methyl-1H-imidazol-2-yl)-6-(1-methyl-1H-pyrazol-3-yl)-N-(4-morpholinopyridin-2-yl)pyrrolo[2,1-f][1,2,4]triazin-4-amine]
% inh of Erk1/2 phosphorylation in Panc-1 [1]: A* (1-25% activation) | % inh of Akt phosphorylation in Panc-1 [2]: D* (85-100% activation) | inhibition at 10 µM [3]: 0%

CO[C@H]1C[C@H](Nc2nc(-c3nccn3C)nn3cc(-c4cccc5c4CCO5)c(-c4ccccc4)c23)C1 [Compound 210, 6-(2,3-Dihydrobenzofuran-4-yl)-N-((1r,3r)-3-methoxycyclobutyl)-2-(1-methyl-1H-imidazol-2-yl)-5-phenylpyrrolo[2,1-f][1,2,4]triazin-4-amine]
% inh of Erk1/2 phosphorylation in Panc-1 [1]: D (85-100% inhibition) | % inh of Akt phosphorylation in Panc-1 [2]: D (85-100% inhibition) | inhibition at 10 µM [3]: 75 to 100%

Cc1c(-c2ccn(C)n2)cn2nc(-c3nccn3C)nc(Nc3ccc(C(F)F)cn3)c12 [Compound 234, N-(5-(Difluoromethyl)pyridin-2-yl)-5-methyl-2-(1-methyl-1H-imidazol-2-yl)-6-(1-methyl-1H-pyrazol-3-yl)pyrrolo[2,1-f][1,2,4]triazin-4-amine]
% inh of Erk1/2 phosphorylation in Panc-1 [1]: D* (85-100% activation) | % inh of Akt phosphorylation in Panc-1 [2]: D* (85-100% activation) | inhibition at 10 µM [3]: 1 to 24%

COc1ccnc(Nc2nc(-c3nccn3C)nn3cc(-c4cccnc4)c(-c4ccccc4)c23)c1 [Compound 196, N-(4-Methoxypyridin-2-yl)-2-(1-methyl-1H-imidazol-2-yl)-5-phenyl-6-(pyridin-3-yl)pyrrolo[2,1-f][1,2,4]triazin-4-amine]
% inh of Erk1/2 phosphorylation in Panc-1 [1]: D* (85-100% activation) | % inh of Akt phosphorylation in Panc-1 [2]: D* (85-100% activation) | inhibition at 10 µM [3]: 75 to 100%
